Experimental data from patent US20240109842A1, “ACRYLAMIDE COMPOUNDS” (OTSUKA PHARMACEUTICAL CO., LTD., priority 2019, published 2024).
Read-outs that look alike come from different tables or passages of the source.

Tested on: immortalized megakaryocyte cell line
Assay: Test Example 1: platelet production, shake culturing
Assay type: cell-based
Conditions: for fold induction at 10 µM: Platelet, 144 h, read-out: Amount of platelet production (vs. Control); for Amount of platelet production (vs. Control): aryl hydrocarbon receptor antagonist Compound A5 0.1 μM added at cell seeding, counted after 6 days
Description: The immortalized megakaryocyte cell line obtained according to the method described in WO 2016/204256 was washed twice with D-PBS(−) and then cultured in medium not containing doxycycline to terminate forced expression (cultured under conditions where gene expression is OFF). Shake culturing at 100 rpm was performed in the following medium after the cells were seeded in a 125-mL polycarbonate Erlenmeyer flask (Corning #431143) at 25 mL/flask and a seeding density of 1×10^5 cells/mL. Culturing conditions were 37° C. and 5% CO2. The medium was obtained by adding the following components to IMDM serving as the basal medium (concentrations indicate final concentrations). • FBS 15% • L-Glutamine 2 mM • ITS 100-fold dilution • MTG 450 μM • Ascorbic acid 50 μg/mL • SCF 50 ng/mL • TA-316 0.1 μg/mL • ADAM inhibitor 15 μM • ROCK inhibitor 0.5 μM […] After culturing for 6 days in total, the number of platelets was measured. The measurement method was as follows. The same operation was performed for control. At 6 days after initiation of the culturing under conditions where gene expression was OFF, a part of the culture supernatant was collected, and suspended with the following antibody and Flow-Count Fluorospheres (Beckman Coulter #7547053) to perform staining. • APC-labeled anti-CD41 antibody (BioLegend #303710) • eFluor 450-labeled anti-CD42a antibody (eBioscience #48-0428-42) • PE-labeled anti-CD42b antibody (BioLegend #303906) At 30 minutes after staining, number of platelets (CD41, CD42a and CD42b-positive cells) was counted by using FACSVerse (manufactured by BD Japan) with Flow-Count Fluorospheres. The number of platelets was given as a percentage of the control.

[1] = DMSO added at cell seeding (no AhR antagonist), compound 10 μM added at Day 3, platelets (CD41, CD42a, CD42b-positive) counted after 6 days

SMILES: COc1cccc2c(/C=C/C(=O)NCCc3ccccc3-c3ccccc3)c[nH]c12 [Example 2]
- fold induction at 10 µM: 1.5 to 6.5
- Amount of platelet production (vs. Control) (compound 10 μM added at Day 3): ++ (not less than 6.5 times)

SMILES: CCSc1ccccc1CCNC(=O)/C=C/c1c[nH]c2c(OC)cccc12 [Example 3]
- fold induction at 10 µM [1]: 1.5 to 6.5
- Amount of platelet production (vs. Control) (compound 10 μM added at Day 3): ++ (not less than 6.5 times)

SMILES: COc1cccc2c(/C=C/C(=O)NCCc3ccccc3CSC)c[nH]c12 [Example 4]
- fold induction at 10 µM: 1.5 to 6.5
- Amount of platelet production (vs. Control) (compound 10 μM added at Day 3): ++ (not less than 6.5 times)

SMILES: CCNc1ccccc1CCNC(=O)/C=C/c1c[nH]c2c(OC)cccc12 [Example 5]
- fold induction at 10 µM [1]: 1.5 to 6.5
- Amount of platelet production (vs. Control) (compound 10 μM added at Day 3): ++ (not less than 6.5 times)

SMILES: COc1cccc2c(/C=C/C(=O)NCCc3ccccc3OCC3CC3)c[nH]c12 [Example 6]
- fold induction at 10 µM: 1.5 to 6.5
- Amount of platelet production (vs. Control) (compound 10 μM added at Day 3): ++ (not less than 6.5 times)

SMILES: COc1cccc2c(/C=C/C(=O)NCCc3ccccc3-c3ccccn3)c[nH]c12 [Example 7]
- fold induction at 10 µM [1]: 1.5 to 6.5
- Amount of platelet production (vs. Control) (compound 10 μM added at Day 3): ++ (not less than 6.5 times)

SMILES: COC(=O)c1ccccc1CCNC(=O)/C=C/c1c[nH]c2c(OC)cccc12 [Example 8]
- fold induction at 10 µM [1]: 1.5 to 6.5
- Amount of platelet production (vs. Control) (compound 10 μM added at Day 3): ++ (not less than 6.5 times)

SMILES: CCSc1ccccc1CCNC(=O)/C=C/c1cn(C(C)=O)c2c(OC)cccc12 [Example 9]
- fold induction at 10 µM [1]: 1.5 to 6.5
- Amount of platelet production (vs. Control) (compound 10 μM added at Day 3): ++ (not less than 6.5 times)

SMILES: COc1cccc2c(/C=C/C(=O)N(C)CCc3ccccc3OCC3CC3)cn(C)c12 [Example 10, (E)-N-[2-[2-(cyclopropylmethoxy)phenyl]ethyl]-3-(7-methoxy-1-methylindol-3-yl)-N-methylprop-2-enamide]
- fold induction at 10 µM [1]: 1.5 to 6.5
- Amount of platelet production (vs. Control) (compound 10 μM added at Day 3): ++ (not less than 6.5 times)

SMILES: CCOc1ccsc1CCNC(=O)/C=C/c1c[nH]c2c(OC)cccc12 [Example 11]
- fold induction at 10 µM [1]: 1.5 to 6.5
- Amount of platelet production (vs. Control) (compound 10 μM added at Day 3): ++ (not less than 6.5 times)

SMILES: COc1cccc2c(/C=C/C(=O)NCCc3cc(F)ccc3-c3ccccc3)c[nH]c12 [Example 12]
- fold induction at 10 µM [1]: 1.5 to 6.5
- Amount of platelet production (vs. Control) (compound 10 μM added at Day 3): ++ (not less than 6.5 times)

SMILES: COc1ccc(-c2ccccc2)c(CCNC(=O)/C=C/c2c[nH]c3c(OC)cccc23)c1 [Example 13]
- fold induction at 10 µM [1]: 1.5 to 6.5
- Amount of platelet production (vs. Control) (compound 10 μM added at Day 3): ++ (not less than 6.5 times)

SMILES: COc1cccc2c(/C=C/C(=O)NCCc3ccccc3-c3nccs3)c[nH]c12 [Example 14]
- fold induction at 10 µM: 1.5 to 6.5
- Amount of platelet production (vs. Control) (compound 10 μM added at Day 3): ++ (not less than 6.5 times)

SMILES: COc1cccc2c(/C=C/C(=O)NCCc3ccccc3-c3ncco3)c[nH]c12 [Example 15]
- fold induction at 10 µM: > 6.5
- Amount of platelet production (vs. Control) (compound 10 μM added at Day 3): ++ (not less than 6.5 times)

SMILES: COc1cccc2c(/C=C/C(=O)NCCc3ccccc3-c3ncccn3)c[nH]c12 [Example 17, (E)-3-(7-methoxy-1H-indol-3-yl)-N-[2-(2-pyrimidin-2-ylphenyl)ethyl]prop-2-enamide]
- fold induction at 10 µM [1]: 1.5 to 6.5
- Amount of platelet production (vs. Control) (compound 10 μM added at Day 3): ++ (not less than 6.5 times)

SMILES: COc1cccc2c(/C=C/C(=O)NCCc3ccccc3-c3cccs3)c[nH]c12 [Example 19, (E)-3-(7-methoxy-1H-indol-3-yl)-N-[2-(2-thiophene-2-ylphenyl)ethyl]prop-2-enamide]
- fold induction at 10 µM [1]: 1.5 to 6.5
- Amount of platelet production (vs. Control) (compound 10 μM added at Day 3): ++ (not less than 6.5 times)

SMILES: COc1cccc2c(/C=C/C(=O)NCCc3ccccc3-c3ccsc3)c[nH]c12 [Example 20]
- fold induction at 10 µM: 1.5 to 6.5
- Amount of platelet production (vs. Control) (compound 10 μM added at Day 3): ++ (not less than 6.5 times)

SMILES: COc1cccc2c(/C=C/C(=O)NCCc3sccc3-c3ccccc3)c[nH]c12 [Example 21]
- fold induction at 10 µM: 1.5 to 6.5
- Amount of platelet production (vs. Control) (compound 10 μM added at Day 3): ++ (not less than 6.5 times)

SMILES: COc1cccc2c(/C=C/C(=O)NCCc3ccsc3-c3ccccc3)c[nH]c12 [Example 22]
- fold induction at 10 µM: 1.5 to 6.5
- Amount of platelet production (vs. Control) (compound 10 μM added at Day 3): ++ (not less than 6.5 times)

SMILES: COc1cccc2c(/C=C/C(=O)NCCc3ccccc3-c3ccccc3)cn(C)c12 [Example 23]
- fold induction at 10 µM: 1.5 to 6.5
- Amount of platelet production (vs. Control) (compound 10 μM added at Day 3): ++ (not less than 6.5 times)

SMILES: COc1cccc2c(/C=C/C(=O)NCCc3ccccc3-c3ccccc3)cn(C(C)=O)c12 [Example 24, (E)-3-(1-acetyl-7-methoxyindol-3-yl)-N-[2-(2-phenylphenyl)ethyl]prop-2-enamide]
- fold induction at 10 µM [1]: 1.5 to 6.5
- Amount of platelet production (vs. Control) (compound 10 μM added at Day 3): ++ (not less than 6.5 times)

SMILES: COc1cccc2c(/C=C/C(=O)NCCc3ccccc3-c3ccccc3)cn(C(=O)c3ccccc3)c12 [Example 25, (E)-3-(1-benzoyl-7-methoxyindol-3-yl)-N-[2-(2-phenylphenyl)ethyl]prop-2-enamide]
- fold induction at 10 µM [1]: 1.5 to 6.5
- Amount of platelet production (vs. Control) (compound 10 μM added at Day 3): ++ (not less than 6.5 times)

SMILES: COc1cccc2c(/C=C/C(=O)NCCc3ccccc3-c3ccco3)c[nH]c12 [Example 26]
- fold induction at 10 µM [1]: 1.5 to 6.5
- Amount of platelet production (vs. Control) (compound 10 μM added at Day 3): ++ (not less than 6.5 times)

SMILES: COc1cccc2c(/C=C/C(=O)NCCc3ccccc3-c3ccccc3F)c[nH]c12 [Example 27]
- fold induction at 10 µM [1]: 1.5 to 6.5
- Amount of platelet production (vs. Control) (compound 10 μM added at Day 3): ++ (not less than 6.5 times)

SMILES: COc1cccc2c(/C=C/C(=O)NCCc3ccccc3-c3ccc(F)cc3)c[nH]c12 [Example 28]
- fold induction at 10 µM [1]: 1.5 to 6.5
- Amount of platelet production (vs. Control) (compound 10 μM added at Day 3): ++ (not less than 6.5 times)

SMILES: CCOc1ncccc1CCNC(=O)/C=C/c1c[nH]c2c(OC)cccc12 [Example 29, (E)-N-[2-(2-ethoxypyridine-3-yl)ethyl]-3-(7-methoxy-1H-indol-3-yl)prop-2-enamide]
- fold induction at 10 µM [1]: 1.5 to 6.5
- Amount of platelet production (vs. Control) (compound 10 μM added at Day 3): ++ (not less than 6.5 times)

SMILES: COc1cccc2c(/C=C/C(=O)NCCc3sccc3-c3cccs3)c[nH]c12 [Example 30]
- fold induction at 10 µM [1]: 1.5 to 6.5
- Amount of platelet production (vs. Control) (compound 10 μM added at Day 3): ++ (not less than 6.5 times)

SMILES: COc1cccc2c(/C=C/C(=O)NCCc3sccc3-c3ccco3)c[nH]c12 [Example 31]
- fold induction at 10 µM [1]: 1.5 to 6.5
- Amount of platelet production (vs. Control) (compound 10 μM added at Day 3): ++ (not less than 6.5 times)

SMILES: COc1cccc2c(/C=C/C(=O)NCCc3sccc3-c3ccccn3)c[nH]c12 [Example 32]
- fold induction at 10 µM [1]: 1.5 to 6.5
- Amount of platelet production (vs. Control) (compound 10 μM added at Day 3): ++ (not less than 6.5 times)

SMILES: COc1cccc2c(/C=C/C(=O)NCCc3ccccc3-c3cccnn3)c[nH]c12 [Example 33]
- fold induction at 10 µM [1]: 1.5 to 6.5
- Amount of platelet production (vs. Control) (compound 10 μM added at Day 3): ++ (not less than 6.5 times)

SMILES: COc1cccc2c(/C=C/C(=O)NCCc3ccccc3-c3ccncn3)c[nH]c12 [Example 34]
- fold induction at 10 µM [1]: 1.5 to 6.5
- Amount of platelet production (vs. Control) (compound 10 μM added at Day 3): ++ (not less than 6.5 times)

SMILES: COCCOc1ccccc1CCNC(=O)/C=C/c1c[nH]c2c(OC)cccc12 [Example 35]
- fold induction at 10 µM [1]: 1.5 to 6.5
- Amount of platelet production (vs. Control) (compound 10 μM added at Day 3): ++ (not less than 6.5 times)

SMILES: CCOc1ccccc1CCNC(=O)/C=C/c1c[nH]c2c(OC)nccc12 [Example 36]
- fold induction at 10 µM [1]: 1.5 to 6.5
- Amount of platelet production (vs. Control) (compound 10 μM added at Day 3): ++ (not less than 6.5 times)

SMILES: COc1cccc2c(/C=C/C(=O)NCCc3ccccc3-n3cccn3)c[nH]c12 [Example 37]
- fold induction at 10 µM [1]: 1.5 to 6.5
- Amount of platelet production (vs. Control) (compound 10 μM added at Day 3): ++ (not less than 6.5 times)

SMILES: CCOc1ccccc1CCNC(=O)/C=C/n1cnc2c(OC)cccc21 [Example 38]
- fold induction at 10 µM [1]: 1.5 to 6.5
- Amount of platelet production (vs. Control) (compound 10 μM added at Day 3): + (the amount of platelets production increased by not less than 1.5 times and less than 6.5 times)

SMILES: COc1cccc2c1ccn2/C=C/C(=O)NCCc1ccccc1-c1ncccn1 [Example 39]
- fold induction at 10 µM [1]: 1.5 to 6.5
- Amount of platelet production (vs. Control) (compound 10 μM added at Day 3): ++ (not less than 6.5 times)

SMILES: COc1cccn2c(/C=C/C(=O)NCCc3ccccc3-c3ncccn3)cnc12 [Example 40]
- fold induction at 10 µM [1]: 1.5 to 6.5
- Amount of platelet production (vs. Control) (compound 10 μM added at Day 3): ++ (not less than 6.5 times)

SMILES: Cc1ccnc2c(/C=C/C(=O)NCCc3ccccc3-c3ncccn3)c[nH]c12 [Example 41]
- fold induction at 10 µM [1]: 1.5 to 6.5
- Amount of platelet production (vs. Control) (compound 10 μM added at Day 3): ++ (not less than 6.5 times)

SMILES: COc1cccc2c(/C=C/C(=O)NCCc3cccc4ccc(C)nc34)c[nH]c12 [Example 42]
- fold induction at 10 µM [1]: 1.5 to 6.5
- Amount of platelet production (vs. Control) (compound 10 μM added at Day 3): ++ (not less than 6.5 times)

SMILES: COC(=O)n1cc(/C=C/C(=O)NCCc2ccccc2-c2ccccc2)c2cccc(OC)c21 [Example 43]
- fold induction at 10 µM [1]: 1.5 to 6.5
- Amount of platelet production (vs. Control) (compound 10 μM added at Day 3): ++ (not less than 6.5 times)

SMILES: COc1cccc2c(/C=C/C(=O)NCCc3occc3-c3ccccc3)c[nH]c12 [Example 44]
- fold induction at 10 µM [1]: 1.5 to 6.5
- Amount of platelet production (vs. Control) (compound 10 μM added at Day 3): ++ (not less than 6.5 times)
